# Source: US8097628B2, “Compounds” (Glaxo Group Limited, priority 2008, dated 2012)
# Tests used:
# [1] = tested on: E. coli 120 AcrAB-; assay: Antimicrobial Activity Assay, whole-cell broth microdilution (CLSI M7-A7); format: cell-based; details: Escherichia coli, read-out: lowest MIC
# Experimental: Whole-cell antimicrobial activity was determined by broth microdilution using the Clinical Laboratory Standards Institute (CLSI) recommended procedure, Document M7-A7, “Methods for Dilution Susceptibility Tests for Bacteria that Grow Aerobically”.
# In addition, compounds were evaluated against a panel of Gram-negative organisms including Haemophilus influenzae, Moraxella catarrhalis, Escherichia coli,
# The minimum inhibitory concentration (MIC) was determined as the lowest concentration of compound that inhibited visible growth. A mirror reader was used to assist in determining the MIC endpoint.
# [2] = tested on: Mycobacterium tuberculosis H37Rv; assay: Mycobacterium tuberculosis H37Rv Inhibition Assay; format: cell-based; details: ATCC 25618 / H37Rv, H37Rv strain (ATCC25618), Middlebrook 7H9, resazurin fluorescence, read-out: MtB MIC
compound,measurement,setting,value
"Cc1cc(CNC2CCN(C[C@@H]3Cn4c(=O)ccc5ccc(=O)n3c54)CC2)cnc1C#N [Example 32, 5-{[(1-{[(1R)-4,9-dioxo-1,2-dihydro-4H,9H-imidazo[1,2,3-ij]-1,8-naphthyridin-1-yl]methyl}-4-piperidinyl)amino]methyl}-3-methyl-2-pyridinecarbonitrile]",MIC,[1],4 µg/mL
same,MIC,[2],0.538 µg/mL
